Values of other authors in patent US20070212388A1, “COMPOSITIONS COMPRISING POROUS ARTICLES AND USES IN IMPLANTABLE MEDICAL DEVICES” (Sahajanand Medical Technologies Pvt. Ltd., priority 2006, published 2007).

Details: for solubility in water: general statement, no test described

solubility in water | water solubility relative to genistein (compared with genistein) | Compound
practically insoluble in water |  | O=c1c(O)c(-c2ccc(O)c(O)c2)oc2cc(O)cc(O)c12 [Quercetin, 2-(3,4-dihydroxyphenyl)-3,5,7-trihydroxy-4H-1-benzopyran-4-one]
 | greater water solubility than genistein | O=c1c(-c2ccc(O)cc2)coc2cc(O[C@@H]3O[C@H](CO)[C@@H](O)[C@H](O)[C@H]3O)cc(O)c12 [Genistin]
practically insoluble in water |  | O=c1c(-c2ccc(O)cc2)coc2cc(O)cc(O)c12 [Genistein, 5,7-dihydroxy-3-(4-hydroxyphenyl)-4H-1-benzopyran-4-one]
